From patent publication US20200383985A1, “Inhibitors of Protease Activated Receptor-2” (Endosome Therapeutics, Inc., priority 2017, published 2020)

Tests used:
colonic afferent neurons = experiment: Colonic afferent recordings, CVH mice (28 d post-TNBS); set-up: species or system mouse
Protocol: Transient colitis in mice induces hypersensitivity of colonic afferent neurons that persists after inflammation is resolved (Azpiroz F., et al., Neurogastroenterol Motil. 2007, 19(1 Suppl): 62-88). This chronic visceral hypersensitivity (CVH) may mimic post-infectious/inflammatory IBS. To determine whether proteases can further amplify CVH, mice were treated with trinitrobenzene sulphonic acid (TNBS, enema) to induce colitis. At 28 d post-TNBS, when inflammation is undetectable, mechanical stimulation of the colon induced a larger firing rate in CVH mice than in HC mice, consistent with chronic hyperexcitability (FIG. 21A-D). […] Thus, proteases can still amplify the excitability of colonic nociceptors even when they are already sensitized as a result of prior inflammation. The colon and rectum (5-6 cm) was removed from C57BL/6 mice. Afferent recordings were made from splanchnic nerves as described (Hughes, P. A. et al., Gut 2009, 58(10): 1333-134; Brierley, S. M. et al., Gastroenterology 2004, 127(1): 166-178). Briefly, the intestine was opened and pinned flat, mucosal side up, in an organ bath. […] Action potentials were analyzed using the Spike 2 […] function and discriminated as single units on the basis of distinguishable waveform, amplitude and duration. […]

PAR2-RLuc8/βARR2-YFP = target: T1, PAR2-RLuc8/βARR2-YFP (Homo sapiens, UniProt P55085); experiment: BRET assay of βARR2 recruitment in DRG neurons; assay type: cell-based; conditions: mouse DRG neurons
T1 construct: expressed in transfected cells; host or cells: mouse (C57BL/6) DRG neurons, nucleofection
T1 sequence (P55085 26-397): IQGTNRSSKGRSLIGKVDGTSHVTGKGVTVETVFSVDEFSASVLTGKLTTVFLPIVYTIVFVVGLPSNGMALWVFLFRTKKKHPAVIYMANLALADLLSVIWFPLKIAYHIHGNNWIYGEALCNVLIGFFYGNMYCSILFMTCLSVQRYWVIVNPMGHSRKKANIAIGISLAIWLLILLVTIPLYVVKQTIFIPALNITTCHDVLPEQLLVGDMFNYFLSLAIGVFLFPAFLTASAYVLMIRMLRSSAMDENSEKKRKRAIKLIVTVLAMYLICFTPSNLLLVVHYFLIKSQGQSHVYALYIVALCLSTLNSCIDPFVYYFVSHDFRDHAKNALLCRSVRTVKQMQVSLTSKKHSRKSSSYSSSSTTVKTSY
Protocol: To assess endocytosis of PAR2 in nociceptors, mouse (m) PAR2-GFP was transfected in to mouse DRG neurons. In vehicle-treated neurons, mPAR2-GFP was detected at the plasma membrane and in intracellular compartments that may correspond to stores of PAR2 in the Golgi apparatus (FIG. 4A) (Jensen D. D., et al. J Biol Chem. 2016, 291(21): 11285-11299). Trypsin, but not NE or CS (100 nM, 30 min), induced mPAR2-GFP endocytosis (FIG. 4A, B). Dy4, but not Dy4 inact, inhibited trypsin-induced endocytosis of mPAR2-GFP (FIG. 4C). To determine whether PAR2 recruits βARRs, which mediate endocytosis, Bioluminescence Resonance Energy Transfer (BRET) sensors were expressed for PAR2-RLuc8 (donor) and βARR2-YFP (acceptor) in mouse DRG neurons. Trypsin, but not NE or CS, increased PAR2-RLuc8/βARR2-YFP BRET (FIG. 4D).
DRG were collected from C57BL/6 mice and Sprague-Dawley rats (all levels). […]
Mouse DRG neurons were equilibrated in HBSS-HEPES (30 min, 37° C.), and incubated with the Renilla luciferase substrate coelenterazine h (NanoLight Technologies) (5 μM, 5 min). BRET ratios were measured at 475±30 nm and 535±30 nm using a CLARIOstar Monochronometer Microplate Reader (BMG LabTech) before and after challenge with trypsin (10 nM), NE (100 nM) or CS (100 nM). Data are presented as a BRET ratio, calculated as the ratio of YFP to RLuc8 signals, and normalized to the baseline average. […]

PAR2-RLuc8/βARR2-YFP BRET (PAR2-RLuc8/βARR2-YFP)	Substance	further amplification of responses compared to basal, CVH mice (colonic afferent neurons)
not	NE: protease (elastase) activating PAR2 by biased mechanisms	30.6±9.0%
increased	trypsin	16.4±7.9%
